Read-outs that look alike come from different tables or passages of the source.
Tests used:
[1] = system: NCI-H1417 cells (human small-cell lung cancer cell lines); test: Cell-growth inhibition test: NCI-H1417 cells; type: cell-based
Protocol: (§1) Under the following conditions, an in vitro cell-growth inhibition test was performed with respect to HEL cells (human acute myelocytic leukemia cell lines), NCI-H1417 cells (human small-cell lung cancer cell lines), and NCI-H146 cells (human small-cell lung cancer cell lines).
(§2) The cells with the Example compound or with dimethylsulfoxide alone were cultured at 37° C. in a 5% carbon-dioxide-containing incubator for 5 days (HEL cells) or 10 days (NCI-H1417 cells and NCI-H146 cells). After culture, the plate was allowed to stand at room temperature for 30 minutes, and 100 μL of the supernatant was removed from each well to leave 100 μL of the cell culture solution. To each well containing the remaining 100 μL of the cell culture solution, the same amount of CellTiter-Glo 2.0 Assay (Promega, Cat #: G9242) was added. The microplate was shaken with a plate mixer for 1 minute and then allowed to stand in a dark place for 10 minutes. Thereafter, the luminescence intensity of viable cells in each well was measured using a microplate reader (PerkinElmer, EnSpire). […] Cell growth rate(%)=T/C×100 • T: The luminescence intensity in a well to which the test compound was added (count per second) • C: The luminescence intensity in a well to which dimethylsulfoxide alone was added (count per second)

[2] = system: HEL cells (human acute myelocytic leukemia cell lines); test: Cell-growth inhibition test: HEL cells; type: cell-based; conditions: read-out: IC50 (nM), Cell-Growth Inhibition Test: HEL Cells
Protocol: as §1, §2

[3] = read-out: IC50 (nM), Cell-Growth Inhibition Test: NCI-H1417 Cells
[4] = NCI-H1417 cells, read-out: IC50 (nM), Cell-Growth Inhibition Test: NCI-H1417 Cells
[5] = Homo sapiens, NCI-H1417, read-out: IC50 (nM), Cell-Growth Inhibition Test: NCI-H1417 Cells

IC50 [1, 4] [nM] | Structure (SMILES) | IC50 [2] [nM] | further results
– | CC(C)(O)Cn1cc(C(=O)O)c2cc(-c3ccc(C(=O)N4[C@@H]5CC[C@H]4[C@@H](N)C5)cc3-c3ccc(C#N)c(F)c3)c(F)cc21 (single isomer, unassigned) [Example 222] | 38 | IC50 [1, 3]: 41.8 nM
– | CC(C)(O)Cn1nnc2cc(-c3ccc(C(=O)N4[C@@H]5CC[C@H]4[C@@H](N)C5)cc3-c3ccc(C#N)c(F)c3)c(F)c(C(F)F)c21 (single isomer, unassigned) [Example 246] | 0.37 | IC50 [1, 3]: 0.81 nM
– | CC(C)(O)Cn1nnc2cc(-c3ccc(C(=O)N4[C@H]5CC[C@@H]4[C@H](N)C5)cc3-c3ccc(C#N)c(F)c3)c(F)c(C3CC3)c21 (single isomer, unassigned) [Example 279] | 1.59 | IC50 [1, 3]: 0.9 nM
26 | Cc1ccc(-c2ccc(C(=O)N3C4CCC3CC(N)C4)cc2-c2ccc(C#N)cc2)cc1 (stereo not drawn) [Example 7, 4-[5-[(3-exo)-3-amino-8-azabicyclo[3.2.1]octane-8-carbonyl]-2-(p-tolyl)phenyl]benzonitrile] | – | IC50 ([2]; HEL cells): 14.8 nM
4.4 | CC(C)(O)Cc1ccc(-c2ccc(C(=O)N3C4CCC3CC(N)C4)cc2-c2ccc(C#N)c(F)c2)c(F)c1 (stereo not drawn) [Example 28, 4-[5-[(3-exo)-3-amino-8-azabicyclo[3.2.1]octane-8-carbonyl]-2-[2-fluoro-4-(2-hydroxy-2-methyl-propyl)phenyl]phenyl]-2-fluoro-benzonitrile] | – | –
18.2 | N#Cc1ccc(-c2cc(C(=O)N3C4CCC3CC(N)C4)ccc2-c2ccc3cccnc3c2)cc1F (stereo not drawn) [Example 107, 4-[5-[(3-exo)-3-amino-8-azabicyclo[3.2.1]octane-8-carbonyl]-2-(7-quinonyl)phenyl]-2-fluoro-benzonitrile] | – | –
3.99 | Cn1cnc2cc(-c3ccc(C(=O)N4C5CCC4CC(N)C5)cc3-c3ccc(C#N)c(F)c3)c(F)cc21 (stereo not drawn) [Example 108, 4-[5-[(3-exo)-3-amino-8-azabicyclo[3.2.1]octane-8-carbonyl]-2-(6-fluoro-1-methyl-benzimidazol-5-yl)phenyl]-2-fluoro-benzonitrile] | – | IC50 ([2]; HEL cells): 36.4 nM
20.5 | COCCc1ccc(-c2ccc(C(=O)N3C4CCC3CC(NC(C)C)C4)cc2-c2ccc(C#N)c(F)c2)c(F)c1 (stereo not drawn) [Example 112, 2-fluoro-4-[2-[2-fluoro-4-(2-methoxyethyl)phenyl]-5-[(3-exo)-3-(isopropylamino)-8-azabicyclo[3.2.1]octane-8-carbonyl]phenyl]benzonitrile] | – | –
– | Cn1nnc2cc(-c3ccc(C(=O)N4CC[C@H](NC5CCC5)C4)cc3-c3ccc(C#N)c(F)c3)c(F)cc21 [Example 116, 4-[5-[(3S)-3-(cyclobutylamino)pyrrolidine-1-carbonyl]-2-(6-fluoro-1-methyl-benzotriazol-5-yl)phenyl]-2-fluoro-benzonitrile] | – | IC50 [1, 5]: 29.5 nM
– | Cn1c(=O)oc2cc(-c3ccc(C(=O)N4CC[C@H](N)C4)cc3-c3ccc(C#N)c(F)c3)ccc21 [Example 119, 4-[5-[(3S)-3-aminopyrrolidine-1-carbonyl]-2-(3-methyl-2-oxo-1,3-benzooxazol-6-yl)phenyl]-2-fluoro-benzonitrile] | – | IC50 [1, 5]: 23.9 nM
8.43 | Cn1nnc2cc(-c3ccc(C(=O)N4C5CCC4CC(N)C5)cc3-c3ccc(C#N)c(F)c3)c(F)cc21 (stereo not drawn) [Example 125, 4-[5-[(3-endo)-3-amino-8-azabicyclo[3.2.1]octane-8-carbonyl]-2-(6-fluoro-1-methyl-benzotriazol-5-yl)phenyl]-2-fluoro-benzonitrile] | – | IC50 ([2]; HEL cells): 7.57 nM
8.25 | Cn1cnc2cc(-c3ccc(C(=O)N4C5CCC4CC(N)C5)cc3-c3ccc(C#N)c(F)c3)c(F)cc21 (stereo not drawn) [Example 130, 4-[5-[(3-endo)-3-amino-8-azabicyclo[3.2.1]octane-8-carbonyl]-2-(6-fluoro-1-methyl-benzimidazol-5-yl)phenyl]-2-fluoro-benzonitrile] | – | IC50 ([2]; HEL cells): 22.2 nM
17.9 | Cn1c(=O)sc2cc(-c3ccc(C(=O)N4C5CCC4CC(N)C5)cc3-c3ccc(C#N)c(F)c3)ccc21 (stereo not drawn) [Example 133, 4-[5-[(3-endo)-3-amino-8-azabicyclo[3.2.1]octane-8-carbonyl]-2-(3-methyl-2-oxo-1,3-benzothiazol-6-yl)phenyl]-2-fluoro-benzonitrile] | – | IC50 ([2]; HEL cells): 17.7 nM
– | Cn1ccc2cc(-c3ccc(C(=O)N4CC[C@H](N)C4)cc3-c3ccc(C#N)c(F)c3)c(F)cc21 [Example 134, (S)-5′-(3-aminopyrrolidine-1-carbonyl)-3-fluoro-2′-(6-fluoro-1-methyl-1H-indol-5-yl)-[1,1′-biphenyl]-4-carbonitrile] | – | IC50 [1, 5]: 0.93 nM
– | CC(C)(O)Cn1ccc2cc(-c3ccc(C(=O)N4C5CCC4CC(N)C5)cc3-c3ccc(C#N)c(F)c3)c(F)cc21 (stereo not drawn) [Example 136, 5′-((3-endo)-3-amino-8-azabicyclo[3.2.1]octane-8-carbonyl)-3-fluoro-2′-(6-fluoro-1-(2-hydroxy-2-methylpropyl)-1H-indol-5-yl)-[1,1′-biphenyl]-4-carbonitrile] | – | IC50 [1, 3]: 2.39 nM
– | CC(C)n1c(=O)sc2cc(-c3ccc(C(=O)N4C5CCC4CC(N)C5)cc3-c3ccc(C#N)c(F)c3)ccc21 (stereo not drawn) [Example 138, 5′-((3-endo)-3-amino-8-azabicyclo[3.2.1]octane-8-carbonyl)-3-fluoro-2′-(3-isopropyl-2-oxo-2,3-dihydrobenzo[d]thiazol-6-yl)-[1,1′-biphenyl]-4-carbonitrile] | 0.9 | –
– | CC(C)(C)n1nnc2cc(-c3ccc(C(=O)N4C5CCC4CC(N)C5)cc3-c3ccc(C#N)c(F)c3)c(F)cc21 (stereo not drawn) [Example 139, 5′-((3-endo)-3-amino-8-azabicyclo[3.2.1]octane-8-carbonyl)-2′-(1-(tert-butyl)-6-fluoro-1H-benzo[d][1,2,3]triazol-5-yl)-3-fluoro-[1,1′-biphenyl]-4-carbonitrile] | 16.9 | –
– | Cc1ccc(-c2ccc(C(=O)N3C4CCC3CC(N)C4)cc2-c2ccc(C#N)c(F)c2)c(F)c1F (stereo not drawn) [Example 144, 5′-((3-endo)-3-amino-8-azabicyclo[3.2.1]octane-8-carbonyl)-2″,3,3″-trifluoro-4″-methyl-[1,1′:2′,1″-terphenyl]-4-carbonitrile] | – | IC50 ([2]; HEL cells): 0.27 nM
– | Cn1nnc2cc(-c3ccc(C(=O)N4[C@@H]5CC[C@H]4C[C@@H](N)C5)cc3-c3ccc(C#N)c(F)c3)c(F)c(F)c21 [Example 145, 5′-((3-endo)-3-amino-8-azabicyclo[3.2.1]octane-8-carbonyl)-2′-(6,7-difluoro-1-methyl-1H-benzo[d][1,2,3]triazol-5-yl)-3-fluoro-[1,1′-biphenyl]-4-carbonitrile] | 1.81 | –
– | CCn1nnc2cc(-c3ccc(C(=O)N4[C@@H]5CC[C@H]4C[C@H](N)C5)cc3-c3ccc(C#N)c(F)c3)c(F)cc21 [Example 160, 5′-((3-endo)-3-amino-8-azabicyclo[3.2.1]octane-8-carbonyl)-2′-(1-ethyl-6-fluoro-1H-benzo[d][1,2,3]triazol-5-yl)-3-fluoro-[1,1′-biphenyl]-4-carbonitrile] | 7.03 | –
– | COc1c(F)c(-c2ccc(C(=O)N3[C@@H]4CC[C@H]3C[C@@H](N)C4)cc2-c2ccc(C#N)c(F)c2)cc2cnn(CC(C)(C)O)c12 [Example 186, 5′-((3-endo)-3-amino-8-azabicyclo[3.2.1]octane-8-carbonyl)-3-fluoro-2′-(6-fluoro-1-(2-hydroxy-2-methylpropyl)-7-methoxy-1H-indazol-5-yl)-[1,1′-biphenyl]-4-carbonitrile] | 6.3 | –
– | CC(C)(O)Cn1ncc2cc(-c3ccc(C(=O)N4[C@@H]5CC[C@H]4C[C@@H](N)C5)cc3-c3ccc(C#N)c(F)c3)c(F)c(F)c21 [Example 188, 5′-((3-endo)-3-amino-8-azabicyclo[3.2.1]octane-8-carbonyl)-2′-(6,7-difluoro-1-(2-hydroxy-2-methylpropyl)-1H-indazol-5-yl)-3-fluoro-[1,1′-biphenyl]-4-carbonitrile] | 5.95 | –
– | CC(C)(O)Cn1ccc2cc(-c3ccc(C(=O)C4CC5(CNC5)CN4)cc3-c3ccc(C#N)c(F)c3)c(F)c(F)c21 (stereo not drawn) [Example 200, 2′-(6,7-difluoro-1-(2-hydroxy-2-methylpropyl)-1H-indol-5-yl)-3-fluoro-5′-(2,7-diazaspiro[3.4]octane-6-carbonyl)-[1,1′-biphenyl]-4-carbonitrile] | – | IC50 [1, 5]: 0.18 nM
– | CC(C)(O)Cn1ccc2cc(-c3ccc(C(=O)N4CC5CNCC5C4)cc3-c3ccc(C#N)c(F)c3)c(F)c(F)c21 (stereo not drawn) [Example 203, 2′-(6,7-difluoro-1-(2-hydroxy-2-methylpropyl)-1H-indol-5-yl)-3-fluoro-5′-(octahydropyrrolo[3,4-c]pyrrole-2-carbonyl)-[1,1′-biphenyl]-4-carbonitrile] | – | IC50 ([2]; Homo sapiens, HEL): 2.45 nM
– | CCC(O)(CC)Cn1ncc2cc(-c3ccc(C(=O)N4CC[C@H](N)C4)cc3-c3ccc(C#N)c(F)c3)c(F)cc21 [Example 204, (S)-5′-(3-aminopyrrolidine-1-carbonyl)-2′-(1-(2-ethyl-2-hydroxybutyl)-6-fluoro-1H-indazol-5-yl)-3-fluoro-[1,1′-biphenyl]-4-carbonitrile] | – | IC50 [1, 5]: 1.98 nM
